Laboratory results taken from patent US20230158025A1 (UNIVERSITY OF UTAH RESEARCH FOUNDATION, priority 2020, published 2023).

Key:
[1] = target: recombinant human GALK1 (Homo sapiens, UniProt P51570); experiment: hGALK1 biochemical activity assay (Kinase-Glo Plus, ATP depletion); settings: recombinant human GALK1, Kinase-Glo Plus ATP depletion; bracketed figure in the cell, e.g. (−1.2), is not defined in the text shown; read-out: hGALK
Procedure, shortened: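 Turnover is measured as ATP depletion by Kinase-Glo Plus luminescence after a 1 h room-temperature reaction. Compounds span 11 concentrations, 57.4 μM–0.97 nM, in final 20 mM HEPES pH 8.0 with 5 mM MgCl2. The substrate solution held 35 μM ATP; the added solution held 5 nM human or mouse GALK1 and 100 μM galactose.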

[2] = target: recombinant mouse GALK1 (Mus musculus, UniProt Q9R0N0); experiment: mGALK1 biochemical activity assay (Kinase-Glo Plus, ATP depletion); settings: recombinant mouse GALK1, Kinase-Glo Plus ATP depletion; bracketed figure in the cell, e.g. (−1.2), is not defined in the text shown; read-out: mGALK
Procedure, shortened: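 Recombinant GALK1 (5 nM) with 100 μM galactose; GALK1 turnover read as ATP depletion by Kinase-Glo Plus luminescence. Reaction ran 1 h at room temperature before detection reagent was added.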

[3] = PAMPA permeability; settings: PAMPA
[4] = aqueous kinetic solubility; settings: aqueous kinetic solubility
[5] = rat microsomal stability (RLM); settings: microsomal stability half-life, minutes

Chain of recombinant human GALK1 (P51570 whole entry): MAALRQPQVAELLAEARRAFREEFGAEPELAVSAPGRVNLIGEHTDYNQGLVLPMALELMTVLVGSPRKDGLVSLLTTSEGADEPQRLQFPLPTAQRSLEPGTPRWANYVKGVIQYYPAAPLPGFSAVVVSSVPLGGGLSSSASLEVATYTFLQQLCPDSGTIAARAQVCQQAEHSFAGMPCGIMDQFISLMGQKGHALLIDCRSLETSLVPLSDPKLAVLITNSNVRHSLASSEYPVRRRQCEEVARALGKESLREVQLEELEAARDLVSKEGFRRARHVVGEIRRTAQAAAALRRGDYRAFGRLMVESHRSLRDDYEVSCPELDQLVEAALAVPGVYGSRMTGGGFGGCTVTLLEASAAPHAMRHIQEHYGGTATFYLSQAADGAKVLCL
Chain of recombinant mouse GALK1 (Q9R0N0 whole entry): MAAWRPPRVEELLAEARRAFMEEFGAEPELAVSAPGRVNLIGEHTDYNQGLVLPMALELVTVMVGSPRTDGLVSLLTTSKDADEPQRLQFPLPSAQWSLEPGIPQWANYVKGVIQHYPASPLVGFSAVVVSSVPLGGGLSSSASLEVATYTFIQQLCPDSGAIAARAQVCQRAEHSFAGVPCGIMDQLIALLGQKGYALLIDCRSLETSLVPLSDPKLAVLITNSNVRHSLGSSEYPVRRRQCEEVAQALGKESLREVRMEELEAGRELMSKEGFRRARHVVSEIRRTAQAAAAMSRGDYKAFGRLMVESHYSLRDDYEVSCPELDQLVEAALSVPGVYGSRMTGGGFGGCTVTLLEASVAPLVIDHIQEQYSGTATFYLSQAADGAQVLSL

Row | Structure (SMILES) | IC50 [1] [µM] | IC50 [2] [µM] | Perm. (1 × 10^−6 cm/sec) [3] | Sol. [4] [µg/mL] | Metab. Stabil. (m) [5] [m]
1 | CC1=C(C(=O)Nc2nncs2)C(c2ccccc2C)N=C(Nc2nc3ccccc3o2)N1 (stereo not drawn) [Compound 267, 2-(benzo[d]oxazol-2-ylamino)-6-methyl-N-(1,3,4-thiadiazol-2-yl)-4-(o-tolyl)-1,4-dihydropyrimidine-5-carboxamide] | 12.2 | 21.7 | 83.8 1 × 10^−6 cm/sec | <1 | >30
2 | CC1=C(C(=O)Nc2nncs2)C(c2n[nH]cc2Br)N=C(Nc2nc3ccccc3o2)N1 (stereo not drawn) [Compound 268, 2-(benzo[d]oxazol-2-ylamino)-4-(4-bromo-1H-pyrazol-3-yl)-6-methyl-N-(1,3,4-thiadiazol-2-yl)-1,4-dihydropyrimidine-5-carboxamide] | 7.69 | 19.3 | 27.4 1 × 10^−6 cm/sec | 11.4 | >30
3 | COc1ccc(Cl)c(C2N=C(Nc3nc4ccccc4o3)NC(C)=C2C(=O)Nc2nncs2)c1 (stereo not drawn) [Compound 269, 2-(benzo[d]oxazol-2-ylamino)-4-(2-chloro-5-methoxyphenyl)-6-methyl-N-(1,3,4-thiadiazol-2-yl)-1,4-dihydropyrimidine-5-carboxamide] | 13.7 | 17.2 | 19.8 1 × 10^−6 cm/sec | <1 | >30
4 | CC1=C(C(=O)Nc2nncs2)C(c2cc(Cl)ccc2Cl)N=C(Nc2nc3ccccc3o2)N1 (stereo not drawn) [Compound 270, 2-(benzo[d]oxazol-2-ylamino)-4-(2,5-dichlorophenyl)-6-methyl-N-(1,3,4-thiadiazol-2-yl)-1,4-dihydropyrimidine-5-carboxamide] | 6.11 | 10.9 | 2.9 1 × 10^−6 cm/sec | <1 | >30
5 | CC1=C(C(=O)Nc2nncs2)C2(CCSCC2)N=C(Nc2nc3ccccc3o2)N1 [Compound 271, 2-(benzo[d]oxazol-2-ylamino)-4-methyl-N-(1,3,4-thiadiazol-2-yl)-9-thia-1,3-diazaspiro[5.5]undeca-1,4-diene-5-carboxamide] | 8.63 | 24.3 | 417.5 1 × 10^−6 cm/sec | 3.5 | >30
6 | CCOC(=O)N1C(Nc2nc3ccccc3o2)=NC(c2ccccc2Cl)C(C(=O)Nc2cc(C(=O)O)ccn2)=C1C (stereo not drawn) [Compound 274, 2-(2-(benzo[d]oxazol-2-ylamino)-4-(2-chlorophenyl)-1-(ethoxycarbonyl)-6-methyl-1,4-dihydropyrimidine-5-carboxamido)isonicotinic acid] | 9.68 | 19.3 | <1 1 × 10^−6 cm/sec | >85 | >30
7 | CC1=C(C(=O)Nc2cc(C(=O)O)ccn2)C(c2ccccc2Cl)N=C(Nc2nc3ccccc3o2)N1C(=O)c1ccccc1 (stereo not drawn) [Compound 275, 2-(2-(benzo[d]oxazol-2-ylamino)-1-benzoyl-4-(2-chlorophenyl)-6-methyl-1,4-dihydropyrimidine-5-carboxamido)isonicotinic acid] | 3.43 | 7.69 | <1 1 × 10^−6 cm/sec | 73.9 | >30
8 | O=C1CC(C(=O)O)CC2=C1C(c1ccccc1Cl)N=C(Nc1nc3ccccc3o1)N2 (stereo not drawn) [Compound 276, 2-(benzo[d]oxazol-2-ylamino)-4-(2-chlorophenyl)-5-oxo-1,4,5,6,7,8-hexahydroquinazoline-7-carboxylic acid] | 3.85 | 6.85 | <1 1 × 10^−6 cm/sec | 52.63 | >30
9 | CNC(=O)C1CC(=O)C2=C(C1)NC(Nc1nc3ccccc3o1)=NC2c1ccccc1Cl (stereo not drawn) [Compound 278, 2-(benzo[d]oxazol-2-ylamino)-4-(2-chlorophenyl)-N-methyl-5-oxo-1,4,5,6,7,8-hexahydroquinazoline-7-carboxamide] | 6.11 | 6.85 | 430.36 1 × 10^−6 cm/sec | <1 | >30
10 | O=C1CC(C(=O)NCCO)CC2=C1C(c1ccccc1Cl)N=C(Nc1nc3ccccc3o1)N2 (stereo not drawn) [Compound 279, 2-(benzo[d]oxazol-2-ylamino)-4-(2-chlorophenyl)-N-(2-hydroxyethyl)-5-oxo-1,4,5,6,7,8-hexahydroquinazoline-7-carboxamide] | 4.85 | 5.44 | <2 1 × 10^−6 cm/sec | 28.98 | >30
11 | COCCNC(=O)C1CC(=O)C2=C(C1)NC(Nc1nc3ccccc3o1)=NC2c1ccccc1Cl (stereo not drawn) [Compound 280, 2-(benzo[d]oxazol-2-ylamino)-4-(2-chlorophenyl)-N-(2-methoxyethyl)-5-oxo-1,4,5,6,7,8-hexahydroquinazoline-7-carboxamide] | 4.85 | 4.85 | 747.27 1 × 10^−6 cm/sec | 4.23 | 10.16
12 | O=C1CC(C(=O)Nc2nncs2)CC2=C1C(c1ccccc1Cl)N=C(Nc1nc3ccccc3o1)N2 (stereo not drawn) [Compound 281, 2-(benzo[d]oxazol-2-ylamino)-4-(2-chlorophenyl)-5-oxo-N-(1,3,4-thiadiazol-2-yl)-1,4,5,6,7,8-hexahydroquinazoline-7-carboxamide] | 6.85 | 12.2 | <5 1 × 10^−6 cm/sec | 1.23 | >30
13 | O=C1CC(C(=O)N2CCNCC2)CC2=C1C(c1ccccc1Cl)N=C(Nc1nc3ccccc3o1)N2 (stereo not drawn) [Compound 282, 2-(benzo[d]oxazol-2-ylamino)-4-(2-chlorophenyl)-7-(piperazine-1-carbonyl)-4,5,6,8-tetrahydroquinazolin-5(1H)-one] | 6.85 | 7.69 | <4.7 1 × 10^−6 cm/sec | 23.88 | 30
14 | O=C(O)CNC(=O)C1CC(=O)C2=C(C1)NC(Nc1nc3ccccc3o1)=NC2c1ccccc1Cl (stereo not drawn) [Compound 283, (2-(benzo[d]oxazol-2-ylamino)-4-(2-chlorophenyl)-5-oxo-1,4,5,6,7,8-hexahydroquinazoline-7-carbonyl)glycine] | 3.43 | 4.85 | <1 1 × 10^−6 cm/sec | 58.23 | >30
15 | CN(C)CCNC(=O)C1CC(=O)C2=C(C1)NC(Nc1nc3ccccc3o1)=NC2c1ccccc1Cl (stereo not drawn) [Compound 284, 2-(benzo[d]oxazol-2-ylamino)-4-(2-chlorophenyl)-N-(2-(dimethylamino)ethyl)-5-oxo-1,4,5,6,7,8-hexahydroquinazoline-7-carboxamide] | 12.2 | 12.2 | <9.8 1 × 10^−6 cm/sec | 61.78 | >30
